The test system of assay [1] is Zscan4-Emerald GFP and MERVL-tdTomato reporter expression in mouse EPS cells. The experiment in a line: Screen with Zscan4-Emerald GFP and MERVL-tdTomato reporter EPS cells. Format: cell-based. To be noted: for effect with CD1530 in inducing totipotent markers: combined with CD1530, EPS reporter cells, day 3. As to the method: Cells were gently digested into single cells using 0.05% trypsin-EDTA. Suspensions were filtered through a 40 µm cell strainer. Then, the samples were analyzed on CytoFLEX (Beckman Coulter). Data analysis was performed using CytExpert software.
To identify small molecules that can induce totipotent features in mouse EPS cells, we used cell lines carrying a MERVL-TdTomato or a Zscan4-Emerald GFP reporter. As the positive control, Dux overexpression was performed in these reporter cells (FIG. 6a-c). N2B27 medium was used for screening and Wnt signaling agonist CHIR 99021 was also added for promoting cell proliferation. In the primary screen, we focused on identifying small molecules that can increase the percentage of Zscan4-Emerald GFP+ cells, and identified more than 50 primary hits. These candidates were further evaluated using MERVL-tdTomato reporter cells and small molecules that can also induce MERVL-tdTomato were selected out for further determining their optimal dosage in activating Zscan4-Emerald and MERVL-tdTomato expression without inducing significant toxicity. […] Therefore, CHIR 99021 was included in the chemical cocktail.

For the next assay, the system named is TPS cells. In words: Culture of TPS cells without CHIR 99021. Format: cell-based, mouse. As to the method: All cell lines were cultured under 20% 02 and 5% C02 at 37° C. Mouse TPS cells were cultured in 4S medium contained N2B27 basal medium [50% DMEM/F12 (Gibco, 11330-032), 50% Neurobasal (Gibco, 21103-049), 0.5% N2 supplement (Gibco, 17502-048), 1% B27 supplement (Gibco, 12587-010), 1% GlutaMAX (Gibco, 35050-061), 1% nonessential amino acids (Gibco, 11140-050)] which promoted cell proliferation, or 1640 basal medium [RPMI Medium 1640 basic (Gibco, 22400-089), 0.5% N2 supplement (Gibco, 17502-048), 1% B27 supplement (Gibco, 12587-010), 1% GlutaMAX (Gibco, 35050-061), 1% nonessential amino acids (Gibco, 11140-050)] which enhanced totipotent molecular features, supplemented with 5% knockout serum replacement (Gibco, 10828-028), 0.2% sodium pyruvate (Gibco, 11360-070), 0.14% sodium DL-lactate solution (Sigma, L7900) and 0.1% Chemically Defined Lipid Concentrate (Gibco, 11905-031), VPA (50 μM; Selleck, S3944), CHIR-99021 (3 μM; Selleck, S1263), EPZ004777 (1 μM, Selleck, S7353) and CD1530 ([…]-0.5 μM; Tocris, 2554). Mouse TPS cells were cultured on mitomycin C inactivated mouse embryonic fibroblast cells (feeders, 3*10^4 cells per cm^2). The culture medium was changed every day. TPS cells were passaged every three days with 0.05% trypsin-EDTA (Gibco, 25300-062) and seeded at a split ratio ranging from 1:3 to 1:10. To generate TPS cells, EPS cells or ES cells were dissociated and cultured on feeders in 4S medium for the first three passages, EPS cells or ES cells need to seed at a lower split ratio 1:3 to improve cell viability. After five passages, TPS cells were generated for further experiments.
The total RNAs were isolated using the Direct-zol RNA Kits (ZYMO Research, R2052). RNA was converted to cDNA using TransScript FirstStrand cDNA Synthesis SuperMix (TransGen Biotech, AT311). Quantitative PCR analysis was conducted using the KAPA SYBR FAST qPCR Kit (KAPA Biosystems, KK4601) with the Bio RAD CFX Connect Real-Time System. The data were analyzed using the delta-delta CT method.
Next, we sought to analyze the role of CHIR 99021 in the induction and maintenance of TPS cells. […]

Assay [2] deals with 8-cell ICR diploid mouse embryos. The experiment in a line: Chimeric assay of single-cell microinjection into 8-cell embryos. Format: in vivo. Particulars: omission of CHIR 99021. As to the method: Cells were digested by 0.05% trypsin-EDTA, and the digested cells were filtered through a 40 µm cell strainer, centrifuged at 1,200-1,500 rpm for 3 min at room temperature. Supernatant were removed and cells were suspended using culture medium with the addition of Y-27632 (10 μM; Tocris, 1254), and placed on the ice before injection. After being placed on ice, the digested cells should be injected in 1 h, otherwise, another batch of cells were digested for the remaining injections.
Single cells were microinjected into 8-cell ICR diploid mouse embryos. The injected embryos were cultured in the culture medium with Y-27632 (10 μM; Tocris, 1254) for the first 4 h. For the generation of chimeric blastocysts, the embryos were transferred into the KSOM medium (Merck, MR-106-D). For the generation of single-cell derived in vivo chimeric conceptuses, chimeric embryos were cultured into KSOM medium with Y-27632 (10 μM; Tocris, 1254) addition in a humidified incubator under 5% CO2 at 37° C. overnight. Injected embryos were transferred to uterine horns of 0.5 post coitum pseudo-pregnant females. Fetal tissues, yolk sacs, placentas were dissected from conceptuses at E7.5, E10.5, E13.5 or E17.5 developmental stages.

Assay [3] deals with EPS cells during TPS conversion. In words: Cell proliferation during conversion of EPS cells to TPS cells. Format: cell-based, mouse. Particulars: CHIR 99021 omitted from the cocktail during the conversion. On the procedure: Mouse EPS cells and ES cells cultured in N2B27-LCDM medium or N2B27-2i/LIF medium for two days were used for TPS generation. Mouse EPS cells and ES cells were washed with DMEM/F12, then 0.05% trypsin-EDTA (Gibco, 25300-062) was added and incubated for 3 min, then DMEM (Gibco, 11965092) supplemented with 10% FBS (Hyclone, SH30070.03) was added. The cells were pipetted up and down several times into single cells. Cells were centrifuged and re-suspended in 4S medium contained N2B27 which promoted cell proliferation or RPMI Medium 1640 basic (Gibco, 22400-089) which enhanced totipotent molecular features supplemented with 5% knockout serum replacement (Gibco, 10828-028), 0.2% sodium pyruvate (Gibco, 11360-070), 0.14% sodium DL-lactate solution (Sigma, L7900) and 0.1% Chemically Defined Lipid Concentrate (Gibco, 11905-031), VPA (50 μM; Selleck, S3944), CHIR-99021, EPZ004777 (1 μM, Selleck, S7353) and CD1530 ([…]-0.5 μM; Tocris, 2554). […]
To identify small molecules that can induce totipotent features in mouse EPS cells, we used cell lines carrying a MERVL-TdTomato or a Zscan4-Emerald GFP reporter. […] These candidates were further evaluated using MERVL-tdTomato reporter cells and small molecules that can also induce MERVL-tdTomato were selected out for further determining their optimal dosage in activating Zscan4-Emerald and MERVL-tdTomato expression without inducing significant toxicity. […]

Molecules are shown by their SMILES.

For the molecule `O=C(O)c1ccc(-c2ccc3cc(O)c(C45CC6CC(CC(C6)C4)C5)cc3c2)cc1` [CD1530], the “inducing Zscan4-GFP and MERVL-tdTomato expression” value in assay [1] (EPS reporter cells, N2B27 medium with CHIR 99021, after titration, compared with other screening hits) is listed as “most effective”.

Take `Cc1c[nH]c(-c2cnc(NCCNc3ccc(C#N)cn3)nc2-c2ccc(Cl)cc2Cl)n1` [CHIR 99021]: the “requirement for the proliferation of TPS cells” value in the assay with TPS cells (omission of CHIR 99021, after further passaging) is listed as “not required”. Also, the “expression of totipotent marker genes in TPS cells” value with TPS cells (omission of CHIR 99021, after long-term culturing) is reported as “not affected”. In addition, the “proliferation of TPS cells” value in the assay with TPS cells (omission of CHIR 99021, first few passages (about 3-5 passages)) was “reduced proliferation”. Also, the “in vivo chimeric of TPS cells” value in assay [2] was “greatly reduce”. The cell proliferation entry in assay [3] is on record as “greatly reduced”.

Turning to `CC(C)N(CCCNC(=O)Nc1ccc(C(C)(C)C)cc1)C[C@H]1O[C@@H](n2ccc3c(N)ncnc32)[C@H](O)[C@@H]1O` [EPZ004777], the “effect with CD1530 in inducing totipotent markers” value in assay [1] is “synergistic effect”.

As for `CCCC(CCC)C(=O)O` [VPA], the “effect with CD1530 in inducing totipotent markers” value in assay [1] is on record as “synergistic effect”.

(Values after patent US20250188422A1, “INDUCED TOTIPOTENT POTENTIAL STEM CELLS, METHODS OF MAKING AND USING” (Peking University, priority 2022, published 2025).)
